Measurements: US20170189484A1, “CEACAM5 PEPTIDES FOR CROHN'S DISEASE” (ICAHN SCHOOL OF MEDICINE AT MOUNT SINAI, priority 2014, published 2017)

Legend:
Format in all cases: cell-based, human
[1] = tested on: LcK phosphorylation in peripheral blood CD8+ T cells; assay: In cell western blot LcK phosphorylation assay; settings: 10 μg/mL, 5, 10, 15 minutes
Protocol: The library of peptides 1-20 was first evaluated by western blot for their ability to activate CD8+ T cells, as indicated by the ability to stimulate LcK phosphorylation (“pLcK”). Peripheral blood isolated CD8′ T cells (2×10^6) were seeded in a 96-well flat-bottom plate and starved in RPMI serum free medium overnight at 37° C. The next day and prior to performing the experiments, the plate was placed on ice for 15 minutes. Cells were stimulated with OKT8 (5 μg/mL) (a known CD8+ T cell activator), purified CEACAM5 peptide (10 μg/mL), the entire library of peptides (10 μg/mL), Pool 1 (10 μg/mL), Pool 2 (10 μg/mL), Pool 3 (10 μg/mL), or each single N-domain peptide (10 μg/mL). Unstimulated cells were also evaluated for each condition. Prior to these experiments a titration curve was performed for the entire library of peptides. A range of concentration between 1 and 100 μg/mL was tested.
Stimulation was stopped using a 4% formaldehyde buffer for 20 minutes followed by centrifugation for 10 minutes at 1,500 rpm. Permeabilization was performed by washing the cells with 1×PBS containing 0.1% Triton X-100 for 5 minutes per wash. After permeabilization, cells were incubated for 1 hour with a blocking buffer (Odyssey Blocking buffer-LICOR) followed by the primary antibodies (goat anti-actin and rabbit anti-pLcK) overnight at 4° C. The next day, cells were washed 5 times with 1×PBS containing 0.1% Tween 20, incubated for 1 hour at room temperature with the secondary antibodies (IRDye 800CW donkey anti goat IgG, IRDye 680 CW donkey anti rabbit IgG), and then washed five times. Wells were dried and the plate was scanned using an Odyssey LiCOR system. The software ImageJ was used for quantification of pLcK. Each value was calculated using actin expression as a house keeping gene and taking into consideration any background noise. […]

[2] = tested on: peripheral blood CD8+ T cells; assay: In vitro suppression assay, peripheral blood CD8+ T cells (CFSE CD4+ T cell proliferation); settings: for percent suppression of CD4+ T cell proliferation (suppressive activity): single peptide 10 μg/mL, normalized against unstimulated CD8+ T cells; for suppressor activity acquired by stimulated CD8+ T cells (suppression of CD4+ T cell proliferation): 10 μg/mL, 3 days, co-culture 1:1 with CFSE-labeled CD3/CD28-stimulated CD4+ T cells
Text: To identify the N-domain peptides that trigger the activation of CD8+ T cells with the suppressor phenotype, peripheral blood CD8^+ T cells and peripheral blood CD4^+ T cells were selected using CD8^+ and CD4^+ T-cell selection kits (Stemcell Technologies, Vancouver, Canada), respectively.
Anti-CD3/CD28 beads were used as positive controls. Cells were then washed, counted, and added at a ratio of 1:1 (2×10^6) to peripheral CD4^+ T cells labeled with carboxyfluorescein succinimidyl ester (CFSE) (Invitrogen, CA), and either unstimulated or stimulated with anti-CD3/CD28 beads.
(§1) Proliferation of CD4^+ T-cells measured by CFSE dilution was evaluated by flow cytometry. CD4+ T cells were labeled with PE anti-CD4 antibody. Percent suppression was calculated based on equation 1:
(§2) % Supp=100*[1−(%Exp/%Control)] (1)
(§3) where: • %Supp=percent suppression • %Exp=the percentage of proliferating CD4+ T cells in the experimental population • % Control=the percentage of proliferating CD4+ T cells in the control population
These peptides were selected due to their activity in the phosphorylation assay. […] Peptides 13 and 15 were also shown to activate suppression, although to a more modest extent (˜10% suppressive activity).
Finally, peptides a-d (see FIG. 7A) were also evaluated using the same procedure, incubating the cells with each single peptide (10 μg/mL).

[3] = tested on: Crohn's disease lamina propria CD8+ T cells; assay: In vitro suppression assay, Crohn's disease lamina propria CD8+ T cells (suppression of CD4+ T cell proliferation); settings: for average suppression percentage (suppressor phenotype): Crohn's disease lamina propria CD8+ cells, relative to CD4+ proliferation with normal unstimulated CD8+ T cells
Protocol: (§4) Lamina propria lymphocytes were isolated from patients undergoing surgery for Crohn's disease (CD) or colon cancer (representing a normal (NL) T cell population). Lamina propria CD8+ T cells were isolated after overnight incubation and incubated with CEACAM5 peptide for 3 days. CD8+ T cells were then washed and co-cultured with CFSE-CD3/CD28-stimulated CD4+ T cells for 3 days. Suppression of CD4+ T cell proliferation was measured on the 7th day.
as §1, §2, §3
as §4, with “peptide or peptide 12” for “peptide”

[4] = tested on: CD8-associated LcK kinase in CD8+ T cells; assay: Flow cytometry LcK phosphorylation assay; settings: 2, 8, 10, 15 minutes at 37° C., peptide 12 at 20 μg/ml
Protocol: To confirm the ability of peptide 12 to activate CD8+ T cells, a second LcK phosphorylation assay was conducted using flow cytometry. CD8+ T cells were treated for different time points (2, 8, 10, 15 minutes) at 37° C. with H2O2 at 10 mM, CEACAM5 supernatant from PIPLC-293T cells expressing CEACAM5, and peptide 12 (20 μg/ml). Stimulation was stopped by fixing with 4% formaldehyde for 10 minutes at room temperature. Subsequently, cells were permeabilized with ice-cold methanol for 20 minutes, washed with PBS containing 0.2% FBS, and then stained with anti-phospho-Lck Ab (BD Biosciences, San Jose, Calif.). The cells were then re-suspended in PBS plus 0.2% FBS, data were acquired using the FACScan system (LSRFortessa, BD Biosciences), and analyzed with FlowJo analysis software (Ashland, Oreg.).

[5] = tested on: normal lamina propria CD8+ T cells; assay: Cytokine IL10 production in lamina propria CD8+ T cells; settings: cultured 3 days; supernatant assessed
Protocol: Cytokine production in lamina propria CD8+ T cells was evaluated. Normal lamina propria CD8+ and CD4+(control) T cells were cultured for 3 days in presence of OKT8 (control) or either CEACAM5 or peptide 12. The supernatant was then assessed for cytokine production.

[6] = tested on: normal lamina propria CD8+ T cells; assay: In vitro suppression assay, normal (colon cancer) lamina propria CD8+ T cells; settings: normal condition (colon cancer biopsies); CD8+ T cells incubated 3 days, vs absence of CEACAM5
Protocol: as §4
as §4, with “peptide or peptide 12” for “peptide”

Q: How did the “CD8+ T cell activation (LcK phosphorylation, p-LcK)” value [1] turn out when H-GTQQATPGPAYSGRE-OH [peptide 11] was run?
A: Its value is “induced phosphorylation of LcK at after 10 minutes”.

Q: How did the “percent suppression of CD4+ T cell proliferation (suppressive activity)” value [2] turn out when H-YSGREIIYPNASLLI-OH [peptide 13] was run?
A: The value was roughly 10%.

Q: With H-ASLLIQNIIQNDTGF-OH [peptide 15] as the molecule, how does the “percent suppression of CD4+ T cell proliferation (suppressive activity)” value [2] read?
A: The value was roughly 10%.

Q: H-TPGPAYSGREIIYPN-OH [peptide 12] was tested. Which “CD8+ T cell activation (LcK phosphorylation, p-LcK)” value [1] did it give?
A: Its value is “greatest effect in the activation of CD8+ T cells”.

Q: And the “suppressor activity acquired by stimulated CD8+ T cells (suppression of CD4+ T cell proliferation)” value (“suppressor activity acquired” below) [2]?
A: Its value is “acquired suppressor activity at the same extant as those activated with full-length CEACAM5”.

Q: What about the “average suppression percentage (suppressor phenotype)” value [3] of the same molecule?
A: Its value is 64%.

Q: What about the “phosphorylation of CD8-associated LcK kinase” value [4] of the same molecule?
A: Its value is “induce phosphorylation of CD8-associated LcK kinase”.

Q: What about the IL10 production [5] of the same molecule?
A: The IL10 production was “increased IL10”.

Q: For “TQQATPGPAYSGREIITPNA (Fragment of the CEACAM5 N-terminal domain) [peptide d]”, which “suppressor activity acquired” value [2] is on record?
A: The value was “acquiring suppressor activity to the same extent as cells activated with peptide 12”.

Q: Which “CD8+ T cell activation (LcK phosphorylation, p-LcK)” value [1] does the source give for H-IGYVIGTQQATPGPA-OH [peptide 10] here?
A: Its value is “induced phosphorylation of LcK at after 10 minutes”.

Q: With “GYVIGTQQATPGPAYSGREI (Fragment of the CEACAM5 N-terminal domain) [peptide c]” as the molecule, how does the “suppressor activity acquired” value [2] read?
A: The value was “acquired suppressor activity”.

B1: CEACAM5: carcinoembryonic antigen family member 5 (GenBank Accession No. NP_001278413), full-length purified glycoprotein used as comparator (protein)
chain: KLTIESTPFNVAEGKEVLLLVHNLPQHLFGYSWYKGERVDGNRQIIGYVIGTQQATPGPAYSGREIIYPNASLLIQNIIQNDTGFYTLHVIKSDLVNEEATGQFRVYPELPKPSISSNNSKPVEDKDAVAFTCEPETQDATYLWWVNNQSLPVSPRLQLSNGNRTLTLFNVTRNDTASYKCETQNPVSARRSDSVILNVLYGPDAPTISPLNTSYRSGENLNLSCHAASNPPAQYSWFVNGTFQQSTQELFIPNITVNNSGSYTCQAHNSDTGLNRTTVTTITVYEPPKPFITSNNSNPVEDEDAVALTCEPEIQNTTYLWWVNNQSLPVSPRLQLSNDNRTLTLLSVTRNDVGPYECGIQNELSVDHSDPVILNVLYGPDDPTISPSYTYYRPGVNLSLSCHAASNPPAQYSWLIDGNIQQHTQELFISNITEKNSGLYTCQANNSASGHSRTTVKTITVSAELPKPSISSNNSKPVEDKDAVAFTCEPEAQNTTYLWWVNGQSLPVSPRLQLSNGNRTLTLFNVTRNDARAYVCGIQNSVSANRSDPVTLDVLYGPDTPIISPPDSSYLSGANLNLSCHSASNPSPQYSWRINGIPQQHTQVLFIAKITPNNNGTYACFVSNLATGRNNSIVKSITVSASGTSPGLSA
Q: What does the source list for B1?
A: suppressive function of lamina propria CD8+ T cells [6]: increased suppressive function; average suppression percentage (suppressor phenotype) [3]: 63%; suppressive function of lamina propria CD8+ T cells ([3]; Crohn's disease, CD8+ T cells incubated 3 days): stimulates the suppressive function; phosphorylation of CD8-associated LcK kinase [4]: induce phosphorylation of CD8-associated LcK kinase; IL10 production [5]: increased IL10
